Assay results published in patent publication US8563549B2, “Pyrimidine derivatives used as PI-3 kinase inhibitors” (Novartis AG, priority 2006, dated 2013).
Where two headings read alike, the source gives them in different places.

Key:
[1] = test system: A2780 ovarian cancer cells; test: Cellular proliferation, Cell Titer Glo (Biological Method 4); format: cell-based; details: Homo sapiens, ovarian cancer cell line A2780
Protocol: In addition, many of the compounds of Table 1 were tested to determine their inhibitory activity in a cellular proliferation assay according to Biological Method 4.
The ability of the compounds of the invention to inhibit cellular proliferation were determined by using Cell Titer Glo, a commercially available assay from Promega Corporation. A2780 ovarian cancer cells were seeded in TC treated 96-well plates at a density of 1,000 per well in DMEM, 10% FBS, 1% Sodium Pyruvate, and 1% Penicillin Streptomycin for a minimum of 2 hrs prior to addition of compound. For each concentration of test compound, 2 μl (500×) aliquots of compound or 100% DMSO diluted in 500 μl of culture medium for 2× concentration then diluted 1× on the Cells. Cells were incubated for 72 hrs at 37° C., 5% CO2. After the 72 hour incubation, Cell Titer Glo reagent is added to determine number of viable cells remaining after exposure to the compound, and the EC50 value was calculated. The assay was performed according to the manufacturer's instruction (Promega Corporation, Madison, Wis. USA). Each experimental condition was performed in duplicate.

[2] = biological target: PI3 kinase alpha (Homo sapiens, UniProt P42336); test: PI3K ATP depletion assay (Biological Method 1, Assay 3); format: biochemical
Chain of PI3 kinase alpha (P42336 whole entry): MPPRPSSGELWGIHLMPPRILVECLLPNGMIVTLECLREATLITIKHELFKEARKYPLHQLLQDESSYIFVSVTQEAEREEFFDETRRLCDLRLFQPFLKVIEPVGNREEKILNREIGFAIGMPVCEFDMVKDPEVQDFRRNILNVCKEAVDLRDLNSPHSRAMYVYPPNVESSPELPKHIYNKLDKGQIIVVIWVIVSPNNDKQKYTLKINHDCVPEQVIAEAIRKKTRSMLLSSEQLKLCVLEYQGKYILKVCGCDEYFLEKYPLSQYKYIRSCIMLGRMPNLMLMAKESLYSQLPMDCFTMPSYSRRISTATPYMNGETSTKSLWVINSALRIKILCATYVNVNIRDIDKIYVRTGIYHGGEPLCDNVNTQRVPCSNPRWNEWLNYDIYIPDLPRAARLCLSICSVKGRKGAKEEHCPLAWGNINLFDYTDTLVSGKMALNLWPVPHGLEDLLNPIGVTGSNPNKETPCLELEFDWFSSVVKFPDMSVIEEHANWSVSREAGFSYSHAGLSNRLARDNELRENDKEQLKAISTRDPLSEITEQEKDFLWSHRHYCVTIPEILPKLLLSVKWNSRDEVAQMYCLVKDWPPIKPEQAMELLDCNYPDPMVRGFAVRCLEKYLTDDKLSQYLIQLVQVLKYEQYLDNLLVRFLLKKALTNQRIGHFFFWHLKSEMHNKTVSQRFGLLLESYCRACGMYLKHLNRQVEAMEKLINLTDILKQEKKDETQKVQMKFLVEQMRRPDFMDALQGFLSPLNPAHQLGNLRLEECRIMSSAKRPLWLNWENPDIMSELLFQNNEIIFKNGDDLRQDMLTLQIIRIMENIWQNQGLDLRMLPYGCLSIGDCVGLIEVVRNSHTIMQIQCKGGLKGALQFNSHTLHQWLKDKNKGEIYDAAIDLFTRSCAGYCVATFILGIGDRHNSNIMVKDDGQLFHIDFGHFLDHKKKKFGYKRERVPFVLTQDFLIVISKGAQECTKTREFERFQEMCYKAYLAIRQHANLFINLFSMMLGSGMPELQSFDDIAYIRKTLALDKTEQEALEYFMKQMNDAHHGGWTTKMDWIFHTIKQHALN
Chain of PI3 kinase alpha (P27986 whole entry partner): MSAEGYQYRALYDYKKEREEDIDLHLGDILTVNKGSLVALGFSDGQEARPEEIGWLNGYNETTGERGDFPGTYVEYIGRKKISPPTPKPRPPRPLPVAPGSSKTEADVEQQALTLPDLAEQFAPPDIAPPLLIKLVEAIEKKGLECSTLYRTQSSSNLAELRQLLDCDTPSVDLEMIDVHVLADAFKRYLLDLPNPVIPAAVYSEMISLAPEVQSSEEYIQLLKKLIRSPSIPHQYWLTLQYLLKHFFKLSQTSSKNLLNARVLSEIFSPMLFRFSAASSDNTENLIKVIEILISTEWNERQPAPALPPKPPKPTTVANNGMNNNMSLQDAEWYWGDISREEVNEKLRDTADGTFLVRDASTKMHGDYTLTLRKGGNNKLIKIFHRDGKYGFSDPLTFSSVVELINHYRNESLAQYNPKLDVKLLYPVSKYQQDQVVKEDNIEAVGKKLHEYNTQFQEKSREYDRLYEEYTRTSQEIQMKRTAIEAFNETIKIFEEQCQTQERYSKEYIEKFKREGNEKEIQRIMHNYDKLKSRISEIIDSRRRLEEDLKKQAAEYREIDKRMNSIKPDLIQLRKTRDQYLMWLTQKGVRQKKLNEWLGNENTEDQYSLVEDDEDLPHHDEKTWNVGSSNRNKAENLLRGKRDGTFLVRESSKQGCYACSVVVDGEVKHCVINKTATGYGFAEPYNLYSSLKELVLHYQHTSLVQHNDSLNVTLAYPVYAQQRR
Protocol: Assay 3: ATP Depletion Assay
Compounds to be tested are dissolved in DMSO and directly distributed into a black 384-well plate at 1.25 μL per well. To start the reaction, 25 μL of 10 nM PI3 kinase and 5 μg/mL 1-alpha-phosphatidylinositol (PI) are added into each well followed by 25 μL of 2 μM ATP. The reaction is performed until approx 50% of the ATP is depleted, and then stopped by the addition of 25 μL of KinaseGlo solution purchased from Promega. The stopped reaction is incubated for 5 minutes and the remaining ATP is then detected via luminescence.

[3] = test system: pSer473 Akt; test: pSer473 Akt assay to monitor PI3K pathway in A2780 cells (Biological Method 2); format: cell-based; details: Homo sapiens, inhibition of Akt phosphorylation
Protocol: In this method, an assay for measuring the PI3K-mediated pSer473-Akt status after treatment with representative inhibitor compounds of the invention is described.
A2780 cells were cultured in DMEM supplemented with 10% FBS. L-glutamine, sodium pyruvate, and antibiotics. Cells were plated in the same medium at a density of 15,000 cells per well into 96 well tissue culture plates, with outside wells vacant, and allowed to adhere overnight.
Test compounds supplied in DMSO were diluted further into DMSO at 500 times the desired final concentrations before dilution into culture media to 2 times the final concentrations. Equal volumes of 2× compounds were added to the cells in 96 well plates and incubated at 37° C. for one hour. The media and compounds were then removed, the plates chilled and cells lysed in a lysis buffer (150 mM NaCl, 20 mM Tris pH 7.5, 1 mM EDTA, 1 mM EGTA, 1% Triton X-100) supplemented with phosphatase and protease inhibitors. After thorough mixing, lysates were transferred to both pSer473Akt and total Akt assay plates from Meso Scale Discovery (MSD), and incubated overnight with shaking at 4° C.
The assays were read on a SECTOR Imager 6000 instrument (Meso Scale Discovery). Ratios of the signal from pSer473Akt and total Akt assays were used to correct for any variability and the percent inhibition of pSer473Akt from the total signal seen in cells treated with compound versus DMSO alone was calculated and used to determine EC50 values for each compound.

## CCN(CC)CCc1csc(Nc2cc(-c3cnc(N)cc3C(F)(F)F)nc(N3CCOCC3)n2)n1 [Compound 13]
[1]
  EC50: < 10 µM

## COCCNc1cc(-c2cnc(N)nc2)nc(N2CCOCC2)n1 [Compound 14]
[1]
  EC50: < 10 µM

## CC(C)(C)Nc1cc(-c2cnc(N)nc2)nc(N2CCOCC2)n1 [Compound 16]
[1]
  EC50: < 10 µM

## Nc1cc(C(F)(F)F)c(-c2cc(N3CCCCC3=O)nc(N3CCOCC3)n2)cn1 [Compound 17]
[1]
  EC50: < 10 µM

## Nc1cc(C(F)(F)F)c(-c2cc(N3CCN(c4ccccc4)C3=O)nc(N3CCOCC3)n2)cn1 [Compound 18]
[1]
  EC50: < 10 µM

## CC(=O)N1CCC(Oc2cc(-c3cnc(N)cc3C(F)(F)F)nc(N3CCOCC3)n2)CC1 [Compound 19]
[1]
  EC50: < 10 µM

## CC(C)(C)OC(=O)N1CCC[C@H](Oc2cc(-c3cnc(N)cc3C(F)(F)F)nc(N3CCOCC3)n2)C1 [Compound 20]
[1]
  EC50: < 10 µM

## CC(=O)N1CCC[C@@H](Oc2cc(-c3cnc(N)nc3N)nc(N3CCOCC3)n2)C1 [Compound 29]
[1]
  EC50: < 10 µM

## CCN(CC)CCc1csc(Nc2cc(-c3cnc(N)nc3C(F)(F)F)nc(N3CCOCC3)n2)n1 [Compound 55]
[1]
  EC50: < 1 µM
[2]
  IC50: < 1 µM
[3]
  EC50: < 1 µM

## Cc1c(Nc2ncc(-c3ccccc3)s2)nc(N2CCOCC2)nc1-c1cnc(N)nc1 [Compound 61]
[1]
  EC50: < 1 µM
[2]
  IC50: < 1 µM
[3]
  EC50: < 1 µM

## CS(=O)(=O)N1CCC[C@H](Oc2cc(-c3cnc(N)nc3N)nc(N3CCOCC3)n2)C1 [Compound 89]
[1]
  EC50: < 1 µM
[2]
  IC50: < 1 µM
[3]
  EC50: < 1 µM

## CS(=O)(=O)c1cccc(-c2cc(-c3cnc(N)cc3C#N)nc(N3CCOCC3)n2)c1 [Compound 92]
[1]
  EC50: < 10 µM

## CC(C)N1CCC(Oc2ccc(Nc3cc(-c4cnc(N)cc4C(F)(F)F)nc(N4CCOCC4)n3)cn2)C1 (centres unmarked) [Compound 93]
[1]
  EC50: < 10 µM

## CS(=O)(=O)c1cccc(-c2cc(-c3cnc(N)cc3C(F)(F)F)nc(N3CCOCC3)n2)c1 [Compound 95]
[1]
  EC50: < 10 µM

## Nc1ncc(-c2cc(OC3CCN(C(=O)OC4CCCC4)CC3)nc(N3CCOCC3)n2)c(N)n1 [Compound 97]
[1]
  EC50: < 10 µM

## CC(=O)N1CCC(Oc2cc(-c3cnc(N)nc3N)nc(N3CCOCC3)n2)CC1 [Compound 99]
[1]
  EC50: < 10 µM

## CC(=O)Nc1ncc(-c2cc(-c3cnc(N)cc3C(F)(F)F)nc(N3CCOCC3)n2)s1 [Compound 126]
[1]
  EC50: < 10 µM
[2]
  IC50: < 1 µM
[3]
  EC50: < 1 µM

## CCN(CC)CCc1csc(Nc2cc(-c3cnc(N)nc3N)nc(N3CCOCC3)n2)n1 [Compound 133]
[1]
  EC50: < 1 µM
[2]
  IC50: < 1 µM
[3]
  EC50: < 1 µM

## Nc1ncc(-c2cc(OC3CCN(C(=O)OCc4ccccc4)CC3)nc(N3CCOCC3)n2)c(N)n1 [Compound 146]
[1]
  EC50: < 1 µM
[2]
  IC50: < 1 µM
[3]
  EC50: < 1 µM

## COc1ccc(Nc2cc(-c3cnc(N)nc3C(F)(F)F)nc(N3CCOCC3)n2)cn1 [Compound 151]
[1]
  EC50: < 10 µM
[2]
  IC50: < 1 µM
[3]
  EC50: < 1 µM

## Nc1ccc(-c2cc(-c3cc4ccccc4nc3NCCN3CCCC3)nc(N3CCOCC3)n2)cn1 [Compound 182]
[1]
  EC50: < 1 µM
[2]
  IC50: < 1 µM
[3]
  EC50: < 1 µM

## CN(C)CCOc1cncc(-c2cc(-c3cnc(N)cc3C(F)(F)F)nc(N3CCOCC3)n2)c1 [Compound 203]
[1]
  EC50: < 10 µM
[2]
  IC50: < 1 µM
[3]
  EC50: < 1 µM

## Nc1ncc(-c2cc(-c3cncc(O)c3)nc(N3CCOCC3)n2)cn1 [Compound 274]
[1]
  EC50: < 10 µM

## COc1cncc(-c2cc(-c3ccc(N)nc3)nc(N3CCOCC3)n2)c1 [Compound 275]
[1]
  EC50: < 10 µM

## Nc1ncc(-c2cc(-c3ccc(F)nc3)nc(N3CCOCC3)n2)cn1 [Compound 278]
[1]
  EC50: < 1 µM

## Nc1ncc(-c2cc(-c3cnc(N)nc3)nc(N3CCOCC3)n2)cn1 [Compound 279]
[1]
  EC50: < 1 µM

## Nc1cc(C(F)(F)F)c(-c2cc(-c3cccnc3NCCO)nc(N3CCOCC3)n2)cn1 [Compound 285]
[1]
  EC50: < 10 µM
[2]
  IC50: < 1 µM

## Nc1cc(Cl)c(-c2cc(OC3CCOCC3)nc(N3CCOCC3)n2)cn1 [Compound 328]
[1]
  EC50: < 10 µM

## N#Cc1cccnc1Nc1cc(-c2ccc(N)nc2)nc(N2CCOCC2)n1 [Compound 364]
[1]
  EC50: < 25 µM
[2]
  IC50: < 10 µM

## Cn1c(Nc2cc(-c3cnc(N)nc3)nc(N3CCOCC3)n2)nc2ccccc21 [Compound 394]
[1]
  EC50: < 10 µM
[2]
  IC50: < 1 µM

## Nc1ncc(-c2cc(N[C@H]3CCC[C@@H]3OCc3ccccc3)nc(N3CCOCC3)n2)cn1 [Compound 396]
[1]
  EC50: < 10 µM
[2]
  IC50: < 1 µM

## Nc1ncc(-c2cc(Nc3ccnc4c(C(F)(F)F)cccc34)nc(N3CCOCC3)n2)cn1 [Compound 408]
[1]; Biological Method 4
  EC50: < 10 µM
[2]; Table 1, Biological Method 1
  IC50: < 1 µM

## CN(C)C(=O)c1cnc(N2CCOCC2)nc1-c1cnc(N)nc1 [Compound 422]
[2]; Table 1, Biological Method 1
  IC50: < 10 µM

## Nc1ccc(-c2cc(NCc3ccncc3)nc(N3CCOCC3)n2)cn1 [Compound 443]
[2]; Table 1, Biological Method 1
  IC50: < 10 µM

## Nc1ccc(-c2cc(NCc3ccccn3)nc(N3CCOCC3)n2)cn1 [Compound 444]
[2]; Table 1, Biological Method 1
  IC50: < 10 µM

## Nc1ccc(-c2cc(NCc3cccnc3)nc(N3CCOCC3)n2)cn1 [Compound 445]
[2]; Table 1, Biological Method 1
  IC50: < 10 µM

## CS(=O)(=O)Nc1cc(N)ncc1-c1cc(Nc2cnc3ccccc3c2)nc(N2CCOCC2)n1 [Compound 492]
[2]; Table 1, Biological Method 1
  IC50: < 10 µM

## COc1ccc2cc(Nc3cc(-c4ccc(N)nc4)nc(N4CCOCC4)n3)cnc2c1 [Compound 494]
[1]; Biological Method 4
  EC50: < 10 µM

## Nc1ccc(-c2cc(Nc3cnc4ccc(OC(F)(F)F)cc4c3)nc(N3CCOCC3)n2)cn1 [Compound 496]
[2]; Table 1, Biological Method 1
  IC50: < 10 µM

## Nc1ccc(-c2cc(-c3ccc(N4CCN(CCO)CC4)nc3)nc(N3CCOCC3)n2)cn1 [Compound 499]
[1]; Biological Method 4
  EC50: < 10 µM
[2]; Table 1, Biological Method 1
  IC50: < 1 µM

## CS(=O)(=O)Nc1ccc(-c2cc(-c3ccc(N)nc3)nc(N3CCOCC3)n2)cn1 [Compound 503]
[1]; Biological Method 4
  EC50: < 10 µM
[2]; Table 1, Biological Method 1
  IC50: < 1 µM

## N#Cc1cnc(Nc2cc(-c3cnc(N)nc3C(F)(F)F)nc(N3CCOCC3)n2)s1 [Compound 545]
[2]; Table 1, Biological Method 1
  IC50: < 1 µM

## Cc1c(Nc2nc(-c3ccccc3)cs2)nc(N2CCOCC2)nc1-c1cnc(N)cc1C(F)(F)F [Compound 555]
[2]; Table 1, Biological Method 1
  IC50: < 10 µM
